The results in this text go back to US20220257569A1, “INDOLE-OXADIAZOLE COMPOUNDS AND THEIR THERAPEUTIC USE” (THE GOVERNING COUNCIL OF THE UNIVERSITY OF TORONTO, priority 2018, published 2022).

The structures appear in SMILES notation.

The target of one data set is T1, cannabinoid CB1 receptor (Homo sapiens, UniProt P21554).
T1 construct: host or cells: HEK293 CB1 β-arrestin cells
The experiment in a line: PathHunter β-Arrestin assay (allosteric inhibition of agonist Emax). The format is cell-based. The settings on record: HEK293 CB1 β-arrestin cells; concentration of modulator giving 50% reduction in agonist Emax; 60 min pre-incubation. An excerpt:
PathHunter™ enzyme fragment complementation is the most important method to measure β-arrestin recruitment. PathHunter™ β-Arrestin assays developed by DiscoveRX are revolutionary high-throughput screening assays for monitoring GPCR activation following ligand stimulation, without an imaging instrument, fluorescent protein tag, or radioactivity.
Instead, the assays detect GPCR activation through binding of β-arrestin to the expressed GPCR of interest, and measure the interaction of the two proteins using enzyme fragment complementation (EFC). The EFC approach offers a range of benefits for screening, including signal amplification and robust performance.
The larger portion of β-gal, termed EA for enzyme acceptor, is fused to the C-terminus of β-arrestin. The smaller, complementing fragment of β-gal, the ProLink™ tag, is expressed as a fusion protein with the GPCR of interest at the C-terminus. Upon activation, the GPCR is bound by β-arrestin. The interaction of β-arrestin and the GPCR forces the interaction of ProLink and EA, thus allowing complementation of the two fragments of β-gal and the formation of a functional enzyme capable of hydrolyzing substrate and generating a […] signal.
Using the PathHunter™ CB1 kit from DiscoveRX, a cannabinoid CB1 receptor agonist is added and activates the receptor, EA, which is fused to the C-terminus of β-arrestin, and then interacts with the ProLink™ tag which is fused to the CB1 receptor. This will result in the […] signal that is recorded by a luminescence plate reader. The […] signal is directly related to the activation of the receptor, therefore a higher concentration of agonist will yield a larger […] signal. The cannabinoid agonist is added in increasing concentrations to obtain an agonist dose response curve. With pre-incubation of a potential allosteric modulator, either an enhancement of agonist activity with an allosteric enhancer or a decrease in the maximal response of the agonist with an allosteric inhibitor is expected.
All raw data are obtained as luminescence (relative light units), and are normalised and presented as a percentage of the maximal response for the cannabinoid CB1 receptor agonist CP55,940 (2-[(1R,2R,5R)-5-hydroxy-2-(3-hydroxypropyl)cyclohexyl]-5-(2-methyloctan-2-yl)phenol).
The PathHunter™ β-Arrestin assay (from DiscoveRX, Fremont, USA) was performed as follows. HEK293 CB1 β-arrestin cells were plated 48 hours before use and incubated at 37° C., 5% CO2 in a humidified incubator. Test compounds were dissolved in dimethylsulfoxide (DMSO) and diluted in optimized cell culture (OCC, as supplied by DiscoveRX) media to the required concentrations. 5 μL of test compound or vehicle solution was added to each well and incubated for 60 minutes at 37° C., 5% CO2 in a humidified incubator. 5 μL of increasing concentrations of anandamide was added to each well followed by a 90-minute incubation at 37° C., 5% CO2 in a humidified incubator. 55 μL of detection reagent (as supplied by DiscoveRX) was then added, followed by a further 90 minute incubation at room temperature in the dark. Chemiluminescence, reported in relative light units (RLU—a dimensionless value, standardised as a % of maximum stimulation with anandamide), was measured on a standard luminescence plate reader.
Data were plotted as % of maximal stimulation (Emax) caused by agonist versus the logarithm of concentration of agonist, in the presence or absence of a fixed concentration of test compound (modulator) or vehicle. For example, stimulation in the presence of agonist alone will give a value for stimulation expressed in RLU, which can be expressed as a range from 0% (at lowest agonist concentration, e.g., 1 nM) to 100% (at the highest agonist concentration, e.g., 10 μM). […]

T1 sequence (P21554 whole entry): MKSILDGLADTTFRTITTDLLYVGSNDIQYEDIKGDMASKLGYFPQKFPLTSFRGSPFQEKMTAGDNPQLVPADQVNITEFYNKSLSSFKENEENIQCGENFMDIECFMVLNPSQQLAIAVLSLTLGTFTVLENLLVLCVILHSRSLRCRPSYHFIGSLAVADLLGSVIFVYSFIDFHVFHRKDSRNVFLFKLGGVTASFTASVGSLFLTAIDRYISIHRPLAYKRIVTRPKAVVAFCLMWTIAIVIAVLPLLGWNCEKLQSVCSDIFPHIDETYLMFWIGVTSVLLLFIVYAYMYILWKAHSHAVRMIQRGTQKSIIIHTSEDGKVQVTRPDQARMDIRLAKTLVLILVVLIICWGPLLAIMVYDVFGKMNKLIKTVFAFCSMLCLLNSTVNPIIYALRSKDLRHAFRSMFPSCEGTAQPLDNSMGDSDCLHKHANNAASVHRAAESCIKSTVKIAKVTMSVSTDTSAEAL

The molecule `COc1ccc(CSc2nnc(-c3[nH]c4ccc(Cl)cc4c3C)o2)cc1` [ABM301, 2-(5-Chloro-3-methyl-1H-indol-2-yl)-5-((4-methoxybenzyl)thio)-1,3,4-oxadiazole] registered a melting point of 210 to 212 °C. Besides, the IC50 at cannabinoid CB1 receptor was found to be 68 nM.
In the case of `CCc1c(-c2nnc(SCc3ccccc3)o2)[nH]c2ccc(Br)cc12` [ABM305, 2-(Benzylthio)-5-(5-bromo-3-ethyl-1H-indol-2-yl)-1,3,4-oxadiazole], the melting point lay in the range of 183 to 185 °C. On cannabinoid CB1 receptor, the IC50 is 30 nM.
For `CCc1c(-c2nnc(SCc3ccc(OC)cc3)o2)[nH]c2ccc(Br)cc12` [ABM309, 2-(5-Bromo-3-ethyl-1H-indol-2-yl)-5-((4-methoxybenzyl)thio)-1,3,4-oxadiazole], the melting point lay in the range of 181 to 183 °C.
`Clc1ccc2[nH]c(-c3nnc(Nc4ccccc4)o3)cc2c1` [ABM310, 5-(5-Chloro-1H-indol-2-yl)-N-phenyl-1,3,4-oxadiazol-2-amine] gave a melting point of 272 to 274 °C. The half-maximal inhibitory concentration (IC50) on cannabinoid CB1 receptor amounted to 3 nM.
On the same counts, the results for `Cc1c(-c2nnc(Nc3ccccc3)o2)[nH]c2ccc(Cl)cc12` [ABM311, 5-(5-Chloro-3-methyl-1H-indol-2-yl)-N-phenyl-1,3,4-oxadiazol-2-amine] are 268 to 270 °C and 2 nM.
The like results for `CCc1c(-c2nnc(Nc3ccccc3)o2)[nH]c2ccc(Br)cc12` [ABM312, 5-(5-Bromo-3-ethyl-1H-indol-2-yl)-N-phenyl-1,3,4-oxadiazol-2-amine] were, in that order, 240 to 242 °C and 1 nM.
The like results for `CCc1c(-c2nnc(NCc3ccccc3)o2)[nH]c2ccc(Cl)cc12` [ABM313, N-Benzyl-5-(5-chloro-3-ethyl-1H-indol-2-yl)-1,3,4-oxadiazol-2-amine] were, in that order, 216 to 218 °C and 12 nM.
Molecule `Clc1ccc2[nH]c(-c3nnc(NCc4ccccc4)o3)cc2c1` [ABM314, N-Benzyl-5-(5-chloro-1H-indol-2-yl)-1,3,4-oxadiazol-2-amine] gave a melting point of 245 to 247 °C. At cannabinoid CB1 receptor, the IC50 is 105 nM.
The molecule `Cc1c(-c2nnc(NCc3ccccc3)o2)[nH]c2ccc(Cl)cc12` [ABM315, N-Benzyl-5-(5-chloro-3-methyl-1H-indol-2-yl)-1,3,4-oxadiazol-2-amine] displayed a melting point of 220 to 222 °C. Besides, on cannabinoid CB1 receptor, the 50% inhibitory concentration (IC50) was 7 nM.
In turn, `CCc1c(-c2nnc(NCc3ccccc3)o2)[nH]c2ccc(Br)cc12` [ABM316, N-Benzyl-5-(5-bromo-3-ethyl-1H-indol-2-yl)-1,3,4-oxadiazol-2-amine] returned a melting point of 218 to 220 °C. Further, the 50% inhibitory concentration (IC50) on cannabinoid CB1 receptor amounted to 12 nM.
On the same counts, the results for `CCc1c(-c2nnc(NCCc3ccccc3)o2)[nH]c2ccc(Cl)cc12` [ABM317, 5-(5-Chloro-3-ethyl-1H-indol-2-yl)-N-phenethyl-1,3,4-oxadiazol-2-amine] are 175 to 177 °C and 0.5 nM.
Regarding `Clc1ccc2[nH]c(-c3nnc(NCCc4ccccc4)o3)cc2c1` [ABM318, 5-(5-Chloro-1H-indol-2-yl)-N-phenethyl-1,3,4-oxadiazol-2-amine], the melting point lay within 235 to 237 °C. Moreover, the IC50 on cannabinoid CB1 receptor was 3 nM.
The like results for `Cc1c(-c2nnc(NCCc3ccccc3)o2)[nH]c2ccc(Cl)cc12` [ABM319, 5-(5-Chloro-3-methyl-1H-indol-2-yl)-N-phenethyl-1,3,4-oxadiazol-2-amine] were, in that order, 195 to 197 °C and 1 nM.
Turning to `CCc1c(-c2nnc(NCCc3ccccc3)o2)[nH]c2ccc(Br)cc12` [ABM320, 5-(5-Bromo-3-ethyl-1H-indol-2-yl)-N-phenethyl-1,3,4-oxadiazol-2-amine], the melting point lay in the range of 170 to 172 °C. Besides, the IC50 at cannabinoid CB1 receptor was found to be 1 nM.
The like results for `Cc1c(-c2nnc(SCc3ccccc3)o2)[nH]c2ccc(Cl)cc12` [ABM321, 2-(Benzylthio)-5-(5-chloro-3-methyl-1H-indol-2-yl)-1,3,4-oxadiazole] were, in that order, 215 to 216 °C and 93 nM.
As for `Cc1c(-c2nnc(SCCc3ccccc3)o2)[nH]c2ccc(Cl)cc12` [ABM322, 2-(5-Chloro-3-methyl-1H-indol-2-yl)-5-(phenethylthio)-1,3,4-oxadiazole], the melting point lay in the range of 222 to 224 °C. Besides, the IC50 on cannabinoid CB1 receptor amounted to 417 nM.
Take `Cc1c(-c2nnc(SCCCc3ccccc3)o2)[nH]c2ccc(Cl)cc12` [ABM323, 2-(5-Chloro-3-methyl-1H-indol-2-yl)-5-((3-phenylpropyl)thio)-1,3,4-oxadiazole]: the melting point lay in the range of 179 to 180 °C. Besides, the concentration for half-maximal inhibition (IC50) on cannabinoid CB1 receptor worked out at 263 nM.
Regarding `Cc1ccc(CSc2nnc(-c3[nH]c4ccc(Cl)cc4c3C)o2)cc1` [ABM324, 2-(5-Chloro-3-methyl-1H-indol-2-yl)-5-((4-methylbenzyl)thio)-1,3,4-oxadiazole], the melting point fell in the range of 212 to 214 °C.
`CCc1c(-c2nnc(SCCc3ccccc3)o2)[nH]c2ccc(Br)cc12` [ABM325] displayed a melting point of 185 to 186 °C. At cannabinoid CB1 receptor, the IC50 came out at 315 nM.
In turn, `CCc1c(-c2nnc(SCCCc3ccccc3)o2)[nH]c2ccc(Br)cc12` [ABM326, 2-(5-Bromo-3-ethyl-1H-indol-2-yl)-5-((3-phenylpropyl)thio)-1,3,4-oxadiazole] displayed a melting point of 134 to 135 °C.
`CCc1c(-c2nnc(SCc3ccc(C)cc3)o2)[nH]c2ccc(Br)cc12` [ABM327, 2-(5-Bromo-3-ethyl-1H-indol-2-yl)-5-((4-methylbenzyl)thio)-1,3,4-oxadiazole] came in with a melting point of 201 to 203 °C. Also, the IC50 at cannabinoid CB1 receptor stood at 67 nM.
As for `CCc1c(-c2nnc(SCCc3ccccc3)o2)[nH]c2ccc(Cl)cc12` [ABM329, 2-(5-Chloro-3-ethyl-1H-indol-2-yl)-5-(phenethylthio)-1,3,4-oxadiazole], the IC50 on cannabinoid CB1 receptor is 930 nM.
As for `CCc1c(-c2nnc(SCCCc3ccccc3)o2)[nH]c2ccc(Cl)cc12` [ABM330, 2-(5-Chloro-3-ethyl-1H-indol-2-yl)-5-((3-phenylpropyl)thio)-1,3,4-oxadiazole], the melting point lay within 170 to 172 °C.
`CCc1c(-c2nnc(SCc3ccc(OC)cc3)o2)[nH]c2ccc(Cl)cc12` [ABM331, 2-(5-Chloro-3-ethyl-1H-indol-2-yl)-5-((4-methoxybenzyl)thio)-1,3,4-oxadiazole] registered a melting point of 179 to 181 °C. Also, the IC50 on cannabinoid CB1 receptor came out at 56 nM.
The like results for `CCc1c(-c2nnc(SCc3ccc(C)cc3)o2)[nH]c2ccc(Cl)cc12` [ABM332, 2-(5-Chloro-3-ethyl-1H-indol-2-yl)-5-((4-methylbenzyl)thio)-1,3,4-oxadiazole] were, in that order, 195 to 197 °C and 85 nM.
As for `c1ccc(CSc2nnc(-c3cc4ccccc4[nH]3)o2)cc1` [ABM333, 2-(Benzylthio)-5-(1H-indol-2-yl)-1,3,4-oxadiazole], the melting point was in the range of 178 to 180 °C.
The molecule `c1ccc(CCSc2nnc(-c3cc4ccccc4[nH]3)o2)cc1` [ABM334, 2-(1H-Indol-2-yl)-5-(phenethylthio)-1,3,4-oxadiazole] displayed a melting point of 184 to 186 °C. The IC50 at cannabinoid CB1 receptor is 172 nM.
Take `CCc1c(-c2nnc(Nc3ccc(F)cc3)o2)[nH]c2ccc(Cl)cc12` [ABM335, 5-(5-Chloro-3-ethyl-1H-indol-2-yl)-N-(4-fluorophenyl)-1,3,4-oxadiazol-2-amine]: the melting point fell in the range of 248 to 250 °C. The concentration for half-maximal inhibition (IC50) at cannabinoid CB1 receptor was 1 nM.
On the same counts, the results for `Fc1ccc(Nc2nnc(-c3cc4cc(Cl)ccc4[nH]3)o2)cc1` [ABM336, 5-(5-Chloro-1H-indol-2-yl)-N-(4-fluorophenyl)-1,3,4-oxadiazol-2-amine] are 265 to 267 °C and 5 nM.
